Data from patent US20230293518A1 (Edgewise Therapeutics, Inc., priority 2020, published 2023).

What follows are compounds tested against skeletal myofibrils (myosin ATPase) (assay: Skeletal Myofibril ATPase Assay). Conditions: Table 4A.
Format: biochemical
Summary of the method: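 Skeletal myofibril ATPase activity was measured via PK-LDH coupling, following NADH loss at 340 nm every 1.5-2 min for 45 min in PIPES/CaCl2/EGTA pCa buffer, pH 7.0. Max−Min slopes were normalised to 1% DMSO vehicle (100%) and fit to a four-parameter logistic (bottom ≥0) for IC50.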

| Structure (SMILES) | IC50 [µM] |
| --- | --- |
| O=C(Cn1nc(-c2ccc(OCC(F)(F)F)nc2)ccc1=O)NC1CCC1 [Compound I-56, N-cyclobutyl-2-(6-oxo-3-(6-(2,2,2-trifluoroethoxy)pyridin-3-yl)pyridazin-1(6H)-yl)acetamide] | < 10 |
| CCNC(=O)Cn1nc(-c2ccc(OCC3(C)COC3)nc2)ccc1=O [Compound I-24, N-ethyl-2-(3-(6-((3-methyloxetan-3-yl)methoxy)pyridin-3-yl)-6-oxopyridazin-1(6H)-yl)acetamide] | 10 to 100 |
| O=C(Cn1nc(-c2ccc(OC(F)F)nc2)ccc1=O)NC1(c2ccccc2)CCC1 [Compound I-68, 2-(3-(6-(difluoromethoxy)pyridin-3-yl)-6-oxopyridazin-1(6H)-yl)-N-(1-phenylcyclobutyl) acetamide] | < 10 |
| CC[C@H](C)NC(=O)Cn1nc(-c2ccc(OC(F)F)nc2)ccc1=O [Compound I-67, (S)-N-(sec-butyl)-2-(3-(6-(difluoromethoxy)pyridin-3-yl)-6-oxopyridazin-1(6H)-yl)acetamide] | < 10 |
| CCNC(=O)Cn1nc(-c2ccc(CC(F)(F)F)nc2)ccc1=O [Compound I-37, N-ethyl-2-(6-oxo-3-(6-(2,2,2-trifluoroethyl)pyridin-3-yl)pyridazin-1(6H)-yl)acetamide] | 10 to 100 |
| CC[C@@H](C)NC(=O)Cn1nc(-c2ccc(OC(F)F)nc2)ccc1=O [Compound I-66, (R)-N-(sec-butyl)-2-(3-(6-(difluoromethoxy)pyridin-3-yl)-6-oxopyridazin-1(6H)-yl)acetamide] | < 10 |
| CCNC(=O)Cn1nc(-c2cnc(NC34CC(F)(C3)C4)nc2)ccc1=O [Compound I-57, N-ethyl-2-(3-(2-((3-fluorobicyclo[1.1.1]pentan-1-yl)amino)pyrimidin-5-yl)-6-oxopyridazin-1(6H)-yl)acetamide] | < 10 |
| COc1ccc(-c2ccc(=O)n(CC(=O)NC(C)C)n2)cn1 [Compound I-16, N-isopropyl-2-(3-(6-methoxypyridin-3-yl)-6-oxopyridazin-1(6H)-yl)acetamide] | 10 to 100 |
| CCNC(=O)Cn1nc(-c2ccc(OC3COC3)nc2)ccc1=O [Compound I-25, N-ethyl-2-(3-(6-(oxetan-3-yloxy)pyridin-3-yl)-6-oxopyridazin-1(6H)-yl)acetamide] | > 100 |

Same assay, conditions: Table 4B

| Structure (SMILES) | IC50 [µM] |
| --- | --- |
| O=C(Cn1nc(-c2ccc(OC(F)F)cc2)ccc1=O)NCC1CCC1 [II-18, N-(cyclobutylmethyl)-2-(3-(4-(difluoromethoxy)phenyl)-6-oxopyridazin-1(6H)-yl)acetamide] | 10 to 100 |

Same assay, conditions: Table 4C

| Structure (SMILES) | IC50 [µM] |
| --- | --- |
| COc1ccc(-c2ccc(=O)n(CC(=O)NCc3ccccc3Cl)n2)cc1OC [IIIb-40, N-(2-chlorobenzyl)-2-(3-(3,4-dimethoxyphenyl)-6-oxopyridazin-1(6H)-yl)acetamide] | > 100 |
| CC[C@H](C)NC(=O)Cn1nc(-c2ccccc2)ccc1=O [IIIc-57, (S)-N-(sec-butyl)-2-(6-oxo-3-phenylpyridazin-1(6H)-yl)acetamide] | 10 to 100 |
| COc1ccc(-c2ccc(=O)n(CC(=O)NCc3cccc(Cl)c3)n2)cc1 [IIIa-8, N-(3-chlorobenzyl)-2-(3-(4-methoxyphenyl)-6-oxopyridazin-1(6H)-yl)acetamide] | < 10 |
| CCc1ccc(-c2ccc(=O)n(CC(=O)NCc3ccccc3Cl)n2)cc1 [IIIa-18, N-(2-chlorobenzyl)-2-(3-(4-ethylphenyl)-6-oxopyridazin-1(6H)-yl)acetamide] | < 10 |
| COc1ccc(-c2ccc(=O)n(CC(=O)NC(C)CCc3ccccc3)n2)cc1 (stereo not shown) [IIIb-30, 2-(3-(4-methoxyphenyl)-6-oxopyridazin-1(6H)-yl)-N-(4-phenylbutan-2-yl)acetamide] | 10 to 100 |
| O=C(Cn1nc(-c2ccc(Cl)cc2)ccc1=O)Nc1cccc2[nH]ccc12 [IIIc-19, 2-(3-(4-chlorophenyl)-6-oxopyridazin-1(6H)-yl)-N-(1H-indol-4-yl)acetamide] | < 10 |
| COc1ccc(-c2ccc(=O)n(CC(=O)NCc3ccc(Cl)cc3Cl)n2)cc1 [IIIa-12, N-(2,4-dichlorobenzyl)-2-(3-(4-methoxyphenyl)-6-oxopyridazin-1(6H)-yl)acetamide] | < 10 |
| CC(C)OCCCNC(=O)Cn1nc(-c2ccc(Cl)cc2)ccc1=O [IIIc-33, 2-(3-(4-chlorophenyl)-6-oxopyridazin-1(6H)-yl)-N-(3-isopropoxypropyl)acetamide] | 10 to 100 |
| COc1ccc(-c2ccc(=O)n(CC(=O)NC3CCCC3)n2)cc1OC [IIIb-45, N-cyclopentyl-2-(3-(3,4-dimethoxyphenyl)-6-oxopyridazin-1(6H)-yl)acetamide] | > 100 |
| COc1ccc(-c2ccc(=O)n(CC(=O)NCc3ccco3)n2)cc1 [IIIb-37, N-(furan-2-ylmethyl)-2-(3-(4-methoxyphenyl)-6-oxopyridazin-1(6H)-yl)acetamide] | 10 to 100 |
| CCNC(=O)Cn1nc(-c2ccc(C3CC3)cc2)ccc1=O [IIIa-19, 2-(3-(4-cyclopropylphenyl)-6-oxopyridazin-1(6H)-yl)-N-ethylacetamide] | < 10 |
| COc1ccc(-c2ccc(=O)n(CC(=O)NC[C@@H]3CC4C=CC3C4)n2)cc1 (stereo partly drawn) [IIIb-39, N-(((2R)-bicyclo[2.2.1]hept-5-en-2-yl)methyl)-2-(3-(4-methoxyphenyl)-6-oxopyridazin-1(6H)-yl)acetamide] | > 100 |
| C[C@@H](NC(=O)Cn1nc(-c2ccc3c(c2)OCCCO3)ccc1=O)c1ccc(F)cc1 [IIIb-26, (R)-2-(3-(3,4-dihydro-2H-benzo[b][1,4]dioxepin-7-yl)-6-oxopyridazin-1(6H)-yl)-N-(1-(4-fluorophenyl)ethyl)acetamide] | 10 to 100 |
| Cc1ccc(-c2ccc(=O)n(CC(=O)NC3CCCCCC3)n2)cc1 [IIIc-4, N-cycloheptyl-2-(6-oxo-3-(p-tolyl)pyridazin-1(6H)-yl)acetamide] | 10 to 100 |
| COc1ccc(-c2ccc(=O)n(CC(=O)Nc3ncccc3C)n2)cc1 [IIIb-27, 2-(3-(4-methoxyphenyl)-6-oxopyridazin-1(6H)-yl)-N-(3-methylpyridin-2-yl)acetamide] | 10 to 100 |
| COc1ccc(-c2ccc(=O)n(CC(=O)Nc3cccc(Cl)c3)n2)cc1 [IIIb-52, N-(3-chlorophenyl)-2-(3-(4-methoxyphenyl)-6-oxopyridazin-1(6H)-yl)acetamide] | > 100 |
| COc1ccc(-c2ccc(=O)n(CC(=O)NC3(c4ccccc4Cl)CC3)n2)cc1 [IIIa-20, N-(1-(2-chlorophenyl)cyclopropyl)-2-(3-(4-methoxyphenyl)-6-oxopyridazin-1(6H)-yl)acetamide] | 10 to 100 |
| COc1ccc(-c2ccc(=O)n(CC(=O)NCCC3=CCCCC3)n2)c(F)c1 [IIIb-7, N-(2-(cyclohex-1-en-1-yl)ethyl)-2-(3-(2-fluoro-4-methoxyphenyl)-6-oxopyridazin-1(6H)-yl)acetamide] | < 10 |
| COc1ccc(-c2ccc(=O)n(CC(=O)NCc3ccon3)n2)cc1 [IIIa-26, N-(isoxazol-3-ylmethyl)-2-(3-(4-methoxyphenyl)-6-oxopyridazin-1(6H)-yl)acetamide] | 10 to 100 |
| COc1ccc(-c2ccc(=O)n(CC(=O)NCc3ccccc3OC)n2)cc1 [IIIb-21] | 10 to 100 |
| COc1ccc(-c2ccc(=O)n(CC(=O)NC(C)C)n2)cc1 [IIIb-18, N-isopropyl-2-(3-(4-methoxyphenyl)-6-oxopyridazin-1(6H)-yl)acetamide] | 10 to 100 |
